The record followed here is patent US20260297085A1, “1 H-PYRROLO[2,3-B]PYRIDIN-4-YL]-2-OXOPYRROLIDINE-3-CARBONITRILE DERIVATIVES AS TYROSINE KINASE 2 (TYK2) INHIBITORS FOR THE TREATMENT OF INFLAMMATORY DISEASES” (BIOGEN MA INC., priority 2023, published 2026).

pIC50: −log10 of the molar value. Counter-ions that a name gives are not always drawn.

For test [1], the target named is T1, human JAK1 kinase domain (JH1) (Homo sapiens, UniProt P23458).
T1 construct: recombinantly generated catalytic kinase (also known as JH1) domain of human JAK1, JAK2, JAK3 and TYK2
T1 sequence (P23458 875-1153 limits assumed): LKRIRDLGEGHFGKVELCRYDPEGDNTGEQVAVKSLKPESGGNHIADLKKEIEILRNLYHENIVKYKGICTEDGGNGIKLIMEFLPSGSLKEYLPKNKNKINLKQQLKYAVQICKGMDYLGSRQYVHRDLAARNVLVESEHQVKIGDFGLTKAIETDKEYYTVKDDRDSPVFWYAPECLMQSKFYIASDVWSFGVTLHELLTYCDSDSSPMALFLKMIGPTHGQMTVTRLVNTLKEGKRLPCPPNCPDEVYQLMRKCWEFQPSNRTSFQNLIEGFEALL
The experiment in a line: JH1 biochemical assay for JAK1 (ADP-Glo kinase assay, recombinant JH1 catalytic domain, JAK3-342 peptide, 35 μM ATP). The method, boiled down:
(§1)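 Reactions ran 100 min with 50 μM substrate peptide (JAK3-342 for JAK1 at 4 nM enzyme; JAK3-974 for JAK2 0.2 nM, JAK3 0.3 nM, TYK2 2 nM), and ADP formed was read by ADP-Glo luminescence. Eleven-point 3-fold series from 10 or 1 μM; IC50 fitted by 4-parameter logistic model.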
A general note: ADP-Glo first removes unused ATP, then detects ADP through luciferase.

For test [2], the target named is T2, human JAK2 kinase domain (JH1) (Homo sapiens, UniProt O60674).
T2 construct: recombinantly generated catalytic kinase (also known as JH1) domain of human JAK1, JAK2, JAK3 and TYK2
T2 sequence (O60674 849-1124 limits assumed): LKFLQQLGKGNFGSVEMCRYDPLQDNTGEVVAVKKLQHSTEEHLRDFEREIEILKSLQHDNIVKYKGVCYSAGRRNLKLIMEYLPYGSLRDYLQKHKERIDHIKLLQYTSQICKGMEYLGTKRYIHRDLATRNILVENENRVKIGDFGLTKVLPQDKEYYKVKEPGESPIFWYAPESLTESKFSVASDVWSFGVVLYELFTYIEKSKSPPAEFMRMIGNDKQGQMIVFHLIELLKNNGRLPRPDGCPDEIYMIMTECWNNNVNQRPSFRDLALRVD
As to the kind of experiment: JH1 biochemical assay for JAK2 (ADP-Glo kinase assay, recombinant JH1 catalytic domain, JAK3-974 peptide, 15 μM ATP). In outline:
as §1

Test [3] concerns the target T3, human JAK3 kinase domain (JH1) (Homo sapiens, UniProt P52333).
T3 construct: recombinantly generated catalytic kinase (also known as JH1) domain of human JAK1, JAK2, JAK3 and TYK2
As to the kind of experiment: JH1 biochemical assay for JAK3 (ADP-Glo kinase assay, recombinant JH1 catalytic domain, JAK3-974 peptide, 4 μM ATP). The method, boiled down: as §1

In test [4] the target is Tyk2 kinase activity on STAT4 in NK92 cells (Homo sapiens, UniProt P29597). As to the kind of experiment: pSTAT4 cell assay (MSD; NK92 cells, 30 ng/mL IL2 stimulation). The format is cell-based. As to conditions: 30 ng/mL IL2, 15 minutes. The method, boiled down: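 Cells natively expressing STAT4 and Tyk2 (NK92) are serum-starved to lower background phosphorylation, exposed to compound for 1 hr over a 10-point four-fold series starting at 10 μM, and stimulated with 30 ng/mL IL2 for 15 minutes. Phosphorylation is quantified on MSD with anti-STAT4 antibodies.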
Chain of Tyk2 kinase activity on STAT4 in NK92 cells (P29597 whole entry): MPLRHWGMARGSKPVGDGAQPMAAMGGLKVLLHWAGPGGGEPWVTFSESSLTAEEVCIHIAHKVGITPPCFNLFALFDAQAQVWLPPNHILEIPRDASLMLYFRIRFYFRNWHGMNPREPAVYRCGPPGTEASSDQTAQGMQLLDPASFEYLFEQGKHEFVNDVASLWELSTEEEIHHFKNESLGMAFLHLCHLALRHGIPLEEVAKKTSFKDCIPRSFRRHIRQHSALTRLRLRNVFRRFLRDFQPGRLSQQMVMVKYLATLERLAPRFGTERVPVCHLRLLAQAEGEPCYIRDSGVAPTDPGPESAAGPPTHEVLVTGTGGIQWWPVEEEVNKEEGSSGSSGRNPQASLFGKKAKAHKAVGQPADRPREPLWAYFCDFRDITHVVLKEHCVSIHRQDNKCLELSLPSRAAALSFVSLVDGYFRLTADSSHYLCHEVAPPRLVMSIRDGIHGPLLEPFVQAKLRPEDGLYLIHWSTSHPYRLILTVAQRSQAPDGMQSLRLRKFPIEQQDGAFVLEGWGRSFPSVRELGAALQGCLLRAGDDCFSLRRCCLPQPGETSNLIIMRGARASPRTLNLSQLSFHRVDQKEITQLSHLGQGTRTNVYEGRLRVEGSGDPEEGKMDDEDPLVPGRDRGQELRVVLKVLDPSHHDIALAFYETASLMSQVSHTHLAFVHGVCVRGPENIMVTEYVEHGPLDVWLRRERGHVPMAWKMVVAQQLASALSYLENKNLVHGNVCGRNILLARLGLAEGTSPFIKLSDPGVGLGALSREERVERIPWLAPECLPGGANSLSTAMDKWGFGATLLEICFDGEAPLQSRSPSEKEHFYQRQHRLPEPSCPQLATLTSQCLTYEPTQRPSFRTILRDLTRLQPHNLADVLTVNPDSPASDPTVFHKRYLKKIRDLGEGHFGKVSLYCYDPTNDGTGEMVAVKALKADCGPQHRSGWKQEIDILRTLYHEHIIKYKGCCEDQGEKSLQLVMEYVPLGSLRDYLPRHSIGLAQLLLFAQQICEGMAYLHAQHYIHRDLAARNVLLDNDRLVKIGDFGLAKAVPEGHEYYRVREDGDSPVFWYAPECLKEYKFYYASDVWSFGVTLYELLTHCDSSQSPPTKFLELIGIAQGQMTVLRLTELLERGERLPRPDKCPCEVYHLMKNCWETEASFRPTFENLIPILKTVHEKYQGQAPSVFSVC

Test [5] addresses JAK1 kinase activity on STAT3 in TF1 cells (Homo sapiens, UniProt P23458). As to the kind of experiment: pSTAT3 cell assay (MSD; TF1 cells, 30 ng/mL IL-6 stimulation). In kind it is cell-based. As to conditions: 30 ng/mL IL-6, 15 minutes. In outline:
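IC50 values derive from 4-parameter logistic fits of normalized pSTAT3 signal, measured by MSD with anti-STAT3 antibodies. TF1 cells, serum-starved beforehand, received compound for 1 hour (top concentration 10 μM, four-fold steps, 10 points) before a 15-minute IL-6 (30 ng/mL) stimulus.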

In test [6] the target is T4, human TYK2 kinase domain (JH1) (Homo sapiens, UniProt P29597).
T4 construct: recombinantly generated catalytic kinase (also known as JH1) domain of human JAK1, JAK2, JAK3 and TYK2
T4 sequence (P29597 897-1176 limits assumed): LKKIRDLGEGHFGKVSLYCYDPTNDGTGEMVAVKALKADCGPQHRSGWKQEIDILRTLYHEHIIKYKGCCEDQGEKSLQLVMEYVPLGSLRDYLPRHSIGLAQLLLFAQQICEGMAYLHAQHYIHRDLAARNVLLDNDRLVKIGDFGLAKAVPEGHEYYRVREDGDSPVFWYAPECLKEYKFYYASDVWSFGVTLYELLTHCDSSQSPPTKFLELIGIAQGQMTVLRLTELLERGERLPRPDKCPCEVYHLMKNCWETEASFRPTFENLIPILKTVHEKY
As to the kind of experiment: JH1 biochemical assay for TYK2 (ADP-Glo kinase assay, recombinant JH1 catalytic domain, JAK3-974 peptide, 10 μM ATP). In outline: as §1

For test [7], the target named is JAK2 kinase activity on STAT5 in TF1 cells (Homo sapiens, UniProt O60674). The experiment in a line: pSTAT5 cell assay (MSD; TF1 cells, 30 ng/mL IL-3 stimulation). The format is cell-based. As to conditions: 30 ng/mL IL-3, 15 minutes. In outline:
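IC50 from a 4-parameter logistic fit of normalized pSTAT5 signal, measured by MSD in lysates of TF1 cells. Cells were serum-starved, exposed to compound for 1 h (top concentration 10 μM, four-fold, 10 points), then given IL-3 at 30 ng/mL for 15 min.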

Chain of JAK1 kinase activity on STAT3 in TF1 cells (P23458 whole entry): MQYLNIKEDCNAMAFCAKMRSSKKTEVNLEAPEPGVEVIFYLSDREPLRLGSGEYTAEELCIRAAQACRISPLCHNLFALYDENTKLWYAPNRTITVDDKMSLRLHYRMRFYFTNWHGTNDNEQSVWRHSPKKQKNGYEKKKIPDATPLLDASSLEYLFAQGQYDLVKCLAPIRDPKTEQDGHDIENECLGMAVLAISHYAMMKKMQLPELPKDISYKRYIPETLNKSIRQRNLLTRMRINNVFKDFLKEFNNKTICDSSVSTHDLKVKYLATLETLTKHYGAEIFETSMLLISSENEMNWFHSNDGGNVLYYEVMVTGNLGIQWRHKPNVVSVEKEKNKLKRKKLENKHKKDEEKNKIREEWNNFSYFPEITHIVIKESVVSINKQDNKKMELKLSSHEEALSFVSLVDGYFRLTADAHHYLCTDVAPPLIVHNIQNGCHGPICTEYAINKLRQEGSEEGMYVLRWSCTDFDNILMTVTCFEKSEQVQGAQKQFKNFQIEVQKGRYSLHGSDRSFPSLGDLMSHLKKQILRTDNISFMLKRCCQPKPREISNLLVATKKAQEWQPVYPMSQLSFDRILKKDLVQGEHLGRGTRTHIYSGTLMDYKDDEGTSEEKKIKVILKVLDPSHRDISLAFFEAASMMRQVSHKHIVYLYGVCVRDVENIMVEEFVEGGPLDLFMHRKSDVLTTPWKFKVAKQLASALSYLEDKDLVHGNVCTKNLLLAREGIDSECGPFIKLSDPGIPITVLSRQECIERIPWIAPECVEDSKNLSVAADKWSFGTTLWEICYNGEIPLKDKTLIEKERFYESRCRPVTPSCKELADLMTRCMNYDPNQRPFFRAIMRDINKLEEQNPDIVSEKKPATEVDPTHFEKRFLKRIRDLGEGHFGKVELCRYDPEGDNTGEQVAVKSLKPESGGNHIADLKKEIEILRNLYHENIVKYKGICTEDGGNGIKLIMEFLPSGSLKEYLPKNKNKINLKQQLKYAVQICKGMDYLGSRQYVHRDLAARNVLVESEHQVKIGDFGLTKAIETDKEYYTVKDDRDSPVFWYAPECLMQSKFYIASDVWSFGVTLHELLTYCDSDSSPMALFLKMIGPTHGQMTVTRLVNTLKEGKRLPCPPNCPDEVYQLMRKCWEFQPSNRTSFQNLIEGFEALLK
T3 sequence (P52333 822-1111 limits assumed): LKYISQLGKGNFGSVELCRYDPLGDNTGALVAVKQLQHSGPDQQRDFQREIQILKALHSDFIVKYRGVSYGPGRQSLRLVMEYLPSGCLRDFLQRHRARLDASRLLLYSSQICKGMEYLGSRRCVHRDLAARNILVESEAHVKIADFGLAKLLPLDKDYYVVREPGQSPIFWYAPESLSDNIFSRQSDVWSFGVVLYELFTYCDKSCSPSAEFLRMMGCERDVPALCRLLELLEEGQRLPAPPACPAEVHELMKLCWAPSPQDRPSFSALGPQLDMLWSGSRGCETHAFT
Chain of JAK2 kinase activity on STAT5 in TF1 cells (O60674 whole entry): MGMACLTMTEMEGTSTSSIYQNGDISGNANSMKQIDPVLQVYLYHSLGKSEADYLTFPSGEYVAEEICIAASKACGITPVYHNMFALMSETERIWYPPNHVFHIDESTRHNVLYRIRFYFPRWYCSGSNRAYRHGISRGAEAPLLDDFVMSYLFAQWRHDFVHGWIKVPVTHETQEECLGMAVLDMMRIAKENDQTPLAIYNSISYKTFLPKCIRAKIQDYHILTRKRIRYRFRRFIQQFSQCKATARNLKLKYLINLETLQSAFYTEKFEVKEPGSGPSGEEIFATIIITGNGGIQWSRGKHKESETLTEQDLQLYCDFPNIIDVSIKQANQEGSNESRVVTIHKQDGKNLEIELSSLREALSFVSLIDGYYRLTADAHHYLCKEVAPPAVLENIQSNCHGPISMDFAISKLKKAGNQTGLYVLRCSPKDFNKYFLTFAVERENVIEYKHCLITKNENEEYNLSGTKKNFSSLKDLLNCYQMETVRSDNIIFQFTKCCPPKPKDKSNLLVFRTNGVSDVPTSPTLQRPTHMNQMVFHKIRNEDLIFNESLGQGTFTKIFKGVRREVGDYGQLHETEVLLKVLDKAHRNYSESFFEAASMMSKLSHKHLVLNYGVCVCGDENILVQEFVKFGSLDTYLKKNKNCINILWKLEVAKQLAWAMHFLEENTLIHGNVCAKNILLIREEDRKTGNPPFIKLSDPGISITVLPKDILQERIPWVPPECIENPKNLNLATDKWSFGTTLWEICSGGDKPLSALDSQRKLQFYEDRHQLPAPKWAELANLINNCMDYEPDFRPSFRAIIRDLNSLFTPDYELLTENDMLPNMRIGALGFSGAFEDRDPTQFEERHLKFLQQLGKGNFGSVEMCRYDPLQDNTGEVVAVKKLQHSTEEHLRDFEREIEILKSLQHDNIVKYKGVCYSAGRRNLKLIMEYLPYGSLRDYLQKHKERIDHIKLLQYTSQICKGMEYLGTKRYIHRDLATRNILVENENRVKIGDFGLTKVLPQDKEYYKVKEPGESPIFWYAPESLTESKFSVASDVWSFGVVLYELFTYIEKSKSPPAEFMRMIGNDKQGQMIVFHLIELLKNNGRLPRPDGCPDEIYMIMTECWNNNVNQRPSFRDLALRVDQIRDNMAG

The pIC50 is −log10 of the IC50, conventionally taken in molar units. As for `CCn1cc(-n2nc(N3C[C@@H](C)[C@@](C#N)(C4CC4)C3=O)c3ccncc32)cn1` [Example 277, (3R,4S)-3-cyclopropyl-1-(1-(1-ethyl-1H-pyrazol-4-yl)-1H-pyrazolo[3,4-c]pyridin-3-yl)-4-methyl-2-oxopyrrolidine-3-carbonitrile], the negative-log IC50 (pIC50) in test [1] (JAK1 JH1, ADP-Glo) was 6.00 to 7.00; in test [2] (JAK2 JH1, ADP-Glo), 6.00 to 7.00; in test [3] (JAK3 JH1, ADP-Glo), 6.00 to 7.00; in test [4], < 7.00; in test [5] it was 5.30 to 6.00; in test [6] (TYK2 JH1, ADP-Glo), > 8.30. This molecule had a pIC50 in test [7] of 5.00 to 5.30.

With `C[C@@H]1CN(c2nc(-c3cnn(C4CC4)c3)cc3ncsc23)C(=O)[C@]1(C#N)C1CC1` [Example 357, (3R,4S)-3-cyclopropyl-1-(6-(1-cyclopropyl-1H-pyrazol-4-yl)thiazolo[5,4-c]pyridin-4-yl)-4-methyl-2-oxopyrrolidine-3-carbonitrile], the negative-log IC50 (pIC50) in test [1] (JAK1 JH1, ADP-Glo) is > 7.00; in test [2] (JAK2 JH1, ADP-Glo), > 7.00; in test [3] (JAK3 JH1, ADP-Glo), > 7.00; in test [4] it was 7.30 to 7.70; in test [5], > 7.00; in test [6] (TYK2 JH1, ADP-Glo), > 8.30. Further, the negative logarithm of the IC50 (pIC50) in test [7] is > 7.00.

As for `CNC(=O)c1cc(-c2cn3nccc3c(N3C[C@@H](C)[C@@](C#N)(C4CC4)C3=O)n2)ccn1` [Example 252, 4-(4-((3R,4S)-3-cyano-3-cyclopropyl-4-methyl-2-oxopyrrolidin-1-yl)pyrazolo[1,5-a]pyrazin-6-yl)-N-methylpicolinamide trifluoroacetate], the negative logarithm of the IC50 (pIC50) is 6.00 to 7.00 in test [1] (JAK1 JH1, ADP-Glo); 6.00 to 7.00 in test [2] (JAK2 JH1, ADP-Glo); 6.00 to 7.00 in test [3] (JAK3 JH1, ADP-Glo); < 7.00 in test [4]; 5.30 to 6.00 in test [5]; 7.70 to 8.30 in test [6] (TYK2 JH1, ADP-Glo). Besides, in test [7], the pIC50 is < 5.00.

`C[C@@H]1CN(c2nc(-c3ccc4c(cnn4C)c3)cn3nccc23)C(=O)[C@]1(C#N)C1CC1` [Example 225, (3R,4S)-3-cyclopropyl-4-methyl-1-(6-(1-methyl-1H-indazol-5-yl)pyrazolo[1,5-a]pyrazin-4-yl)-2-oxopyrrolidine-3-carbonitrile trifluoroacetate]: the pIC50 in test [1] (JAK1 JH1, ADP-Glo) is > 7.00; in test [2] (JAK2 JH1, ADP-Glo), 6.00 to 7.00; in test [3] (JAK3 JH1, ADP-Glo) it was > 7.00; in test [4], < 7.00; in test [5], 5.30 to 6.00; in test [6] (TYK2 JH1, ADP-Glo) it was > 8.30. Further, the negative-log IC50 (pIC50) in test [7] was 5.30 to 6.00.

On to `C[C@@H]1CN(c2ccnn3cc(-c4cnn(C)c4)nc23)C(=O)[C@]1(C#N)C1CC1` [Example 182, (3R,4S)-3-cyclopropyl-4-methyl-1-(2-(1-methyl-1H-pyrazol-4-yl)imidazo[1,2-b]pyridazin-8-yl)-2-oxopyrrolidine-3-carbonitrile], for which the negative logarithm of the IC50 (pIC50) in test [1] (JH1 kinase domain, ADP-Glo) is 6.00 to 7.00; in test [2] (JH1 kinase domain, ADP-Glo), 6.00 to 7.00; in test [3] (JH1 kinase domain, ADP-Glo), 6.00 to 7.00; in test [4], < 7.00; in test [5] it was 5.00 to 5.30; in test [6] (JH1 kinase domain, ADP-Glo), 7.30 to 7.70. The negative logarithm of the IC50 (pIC50) in test [7] is < 5.00.

`C[C@@H]1CN(c2ccnn3cc(-c4ccc5c(cnn5C)c4)cc23)C(=O)[C@]1(C#N)C1CC1` [Example 55, (3R,4S)-3-cyclopropyl-4-methyl-1-(6-(1-methyl-1H-indazol-5-yl)pyrrolo[1,2-b]pyridazin-4-yl)-2-oxopyrrolidine-3-carbonitrile]: the pIC50 in test [1] (JH1 kinase domain, ADP-Glo) is > 7.00; in test [2] (JH1 kinase domain, ADP-Glo), 6.00 to 7.00; in test [3] (JH1 kinase domain, ADP-Glo), 6.00 to 7.00; in test [4], 7.70 to 8.30; in test [5], 6.00 to 7.00; in test [6] (JH1 kinase domain, ADP-Glo), > 8.30. The molecule further showed a pIC50 in test [7] of 5.30 to 6.00.

`C[C@@H]1CN(c2ccnn3cc(-c4cn(C)cn4)cc23)C(=O)[C@]1(C#N)C1CC1` [Example 111, (3R,4S)-3-cyclopropyl-4-methyl-1-(6-(1-methyl-1H-imidazol-4-yl)pyrrolo[1,2-b]pyridazin-4-yl)-2-oxopyrrolidine-3-carbonitrile trifluoroacetate]: the negative-log IC50 (pIC50) in test [1] (JH1 kinase domain, ADP-Glo) is 6.00 to 7.00; in test [2] (JH1 kinase domain, ADP-Glo) it was 6.00 to 7.00; in test [3] (JH1 kinase domain, ADP-Glo), 6.00 to 7.00; in test [4], < 7.00; in test [5], < 5.00; in test [6] (JH1 kinase domain, ADP-Glo), > 8.30. Moreover, the negative-log IC50 (pIC50) in test [7] was < 5.00.

In the case of `C[C@@H]1CN(c2nc(-c3cnn(-c4ccccn4)c3)cn3nccc23)C(=O)[C@]1(C#N)C1CC1` [Example 296, (3R,4S)-3-cyclopropyl-4-methyl-2-oxo-1-(6-(1-(pyridin-2-yl)-1H-pyrazol-4-yl)pyrazolo[1,5-a]pyrazin-4-yl)pyrrolidine-3-carbonitrile], the pIC50 in test [1] (JAK1 JH1, ADP-Glo) was > 7.00; in test [2] (JAK2 JH1, ADP-Glo), 6.00 to 7.00; in test [3] (JAK3 JH1, ADP-Glo), > 7.00; in test [4] it was 7.30 to 7.70; in test [5] it was 6.00 to 7.00; in test [6] (TYK2 JH1, ADP-Glo), > 8.30. The molecule also gave a pIC50 in test [7] of 5.30 to 6.00.

In the case of `C[C@@H]1CN(c2nc(-c3cnn(CC4COC4)c3)cn3ncc(F)c23)C(=O)[C@]1(C#N)C1CC1` [Example 304, (3R,4S)-3-cyclopropyl-1-(3-fluoro-6-(1-(oxetan-3-ylmethyl)-1H-pyrazol-4-yl)pyrazolo[1,5-a]pyrazin-4-yl)-4-methyl-2-oxopyrrolidine-3-carbonitrile], the pIC50 is > 7.00 in test [1] (JAK1 JH1, ADP-Glo); > 7.00 in test [2] (JAK2 JH1, ADP-Glo); > 7.00 in test [3] (JAK3 JH1, ADP-Glo); 7.00 to 7.30 in test [4]; 6.00 to 7.00 in test [5]; > 8.30 in test [6] (TYK2 JH1, ADP-Glo). In test [7], the pIC50 was 5.30 to 6.00.

In the case of `CC(=O)Nc1cncc(-c2cc3c(N4C[C@@H](C)[C@@](C#N)(C5CC5)C4=O)ccnn3c2)c1` [Example 90, N-(5-(4-((3R,4S)-3-cyano-3-cyclopropyl-4-methyl-2-oxopyrrolidin-1-yl)pyrrolo[1,2-b]pyridazin-6-yl)pyridin-3-yl)acetamide], the pIC50 in test [1] (JH1 kinase domain, ADP-Glo) is 6.00 to 7.00; in test [2] (JH1 kinase domain, ADP-Glo) it was 6.00 to 7.00; in test [3] (JH1 kinase domain, ADP-Glo) it was 6.00 to 7.00; in test [4] it was < 7.00; in test [5], 5.00 to 5.30; in test [6] (JH1 kinase domain, ADP-Glo), 7.70 to 8.30. The pIC50 in test [7] was < 5.00.
